The text below walks through data of patent US11542262B2, “Phosphatidylinositol 3-kinase inhibitors” (NANJING ZHENGXIANG PHARMACEUTICALS CO., LTD., priority 2019, dated 2023).

Like-named read-outs stand apart in the source and are kept apart here.

For one series, the target named is PI3Kγ (Homo sapiens, UniProt P48736). The series can be described thus: ADP-Glo luminescent assay, enzymatic activity of PI3K gamma. It is filed as biochemical. As to conditions: ATP 25 μM; read-out: PI3K gamma (nM) inhibitory activity (IC50). Background: ADP-Glo turns the ADP formed in a reaction into a luminescent signal.
A further series deals with PI3Kδ (Homo sapiens, UniProt O00329). The series can be described thus: ADP-Glo luminescent assay, enzymatic activity of PI3K delta. It is filed as biochemical. The following applies: ATP 25 μM; read-out: PI3K delta (nM) inhibitory activity (IC50).
For another series, the target named is PI3Kα (Homo sapiens, UniProt P42336). The series can be described thus: ADP-Glo luminescent assay, enzymatic activity of PI3K alpha. It is filed as biochemical. The following applies: ATP 25 μM; read-out: PI3K alpha (nM) inhibitory activity (IC50). Here is the method:
(§1) Enzymatic activity of PI3K isoforms: Enzymatic activity of the class I PI3K isoforms in the presence of the compounds of Table 1 was measured using ADP-Glo luminescent assay against PI3Kα, PI3Kβ, PI3Kδ and PI3Kγ with ATP concentration at 25 μM. IPI-549 was used as the reference compound. The compounds would be tested from 1 or 10 μM, 3-fold dilution for 10 doses, in duplicate.
(§2) Compound preparation: Dilute a compound to 100× of the final desired highest inhibitor concentration in reaction by 100% DMSO. Transfer 100 μl of this compound dilution to a well in a 96-well plate and serially dilute it with DMSO for a total of 10 concentrations.
(§3) Kinase reaction: Prepare a solution of PI3K in 1× kinase buffer at 2-fold the final concentration of each reagent in the assay. Control wells contain 1× kinase buffer without enzyme. Prepare substrate solution of PIP2 substrate and ATP in 1× kinase reaction buffer at 2-fold of the final concentration. Add concentration substrate solution to each well to the final concentration. Cover the assay plate, shake to mix, and incubate at room temperature for 1 hour. Add 5 μl of ADP-Glo reagent to each well to stop the reaction. Mix briefly with a quick spin, shake slowly on the shaker for 120 min. Add 10 ul Kinase Detection Reagent to each well, shake 1 min, equilibrate for 30 min before reading on a luminescence plate reader.
(§4) Data Analysis: Convert RLU values to percent inhibition values as Percent inhibition=(max−sample RLU)/(max−min)*100. “min”—no enzyme control; “max”—DMSO control. Fit the data in XLFit excel add-in version 5.4.0.8 to obtain IC50 values. Y=Bottom+(Top−Bottom)/(1+(IC50/X)^HillSlope).

A further series concerns the target PI3Kβ (Homo sapiens, UniProt P42338). The series can be described thus: ADP-Glo luminescent assay, enzymatic activity of PI3K beta. As to conditions: ATP 25 μM; read-out: PI3K beta (nM) inhibitory activity (IC50). In kind it is biochemical. The protocol:
as §1, §2, §3, §4

The nature of series [1]: Pharmacokinetics in mice (plasma and brain concentrations). In kind it is in vivo, CD-1 mice. The following applies: male CD1 mouse, oral gavage 20 mg/kg. The protocol:
The dosing solution was administered to male CD-1 mice via oral gavage (PO) at 20 mg/kg. Blood and brain tissue samples were collected at 0.5, 2 and 8 hours post-dose. The blood samples were then centrifuged for 5 minutes in a centrifuge refrigerated at 4° C. The brain samples after blood removal were homogenized in water.

The test system of another series is 4T1 cells. Nature of the series: Anti-tumor efficacy in 4T1 syngeneic mouse tumor model. It is filed as in vivo. As to conditions: 4T1 in BALB/c mice, oral gavage 100 mg/kg, FIG. 1. The protocol: BALB/c mice were inoculated subcutaneously at the fourth mammary pad with 4T1 cells for tumor development. On the next day after tumor cell inoculation, the mice were assigned into 2 groups using stratified randomization with 10 mice in each group based upon their body weight and inoculation order. […] The tumor sizes were measured three times per week during the treatment. Tumor volume was calculated by the formula: length×width^2/2.

A further series relates to MOG35-55 induced EAE. The series can be described thus: Efficacy on MOG35-55 induced EAE. As to conditions: 20 mg/kg and 80 mg/kg BID PO, 14 days from day 10, FIG. 2. It is filed as in vivo, C57BL/6 mice.

Sequence of PI3Kδ (O00329 whole entry, species assumed): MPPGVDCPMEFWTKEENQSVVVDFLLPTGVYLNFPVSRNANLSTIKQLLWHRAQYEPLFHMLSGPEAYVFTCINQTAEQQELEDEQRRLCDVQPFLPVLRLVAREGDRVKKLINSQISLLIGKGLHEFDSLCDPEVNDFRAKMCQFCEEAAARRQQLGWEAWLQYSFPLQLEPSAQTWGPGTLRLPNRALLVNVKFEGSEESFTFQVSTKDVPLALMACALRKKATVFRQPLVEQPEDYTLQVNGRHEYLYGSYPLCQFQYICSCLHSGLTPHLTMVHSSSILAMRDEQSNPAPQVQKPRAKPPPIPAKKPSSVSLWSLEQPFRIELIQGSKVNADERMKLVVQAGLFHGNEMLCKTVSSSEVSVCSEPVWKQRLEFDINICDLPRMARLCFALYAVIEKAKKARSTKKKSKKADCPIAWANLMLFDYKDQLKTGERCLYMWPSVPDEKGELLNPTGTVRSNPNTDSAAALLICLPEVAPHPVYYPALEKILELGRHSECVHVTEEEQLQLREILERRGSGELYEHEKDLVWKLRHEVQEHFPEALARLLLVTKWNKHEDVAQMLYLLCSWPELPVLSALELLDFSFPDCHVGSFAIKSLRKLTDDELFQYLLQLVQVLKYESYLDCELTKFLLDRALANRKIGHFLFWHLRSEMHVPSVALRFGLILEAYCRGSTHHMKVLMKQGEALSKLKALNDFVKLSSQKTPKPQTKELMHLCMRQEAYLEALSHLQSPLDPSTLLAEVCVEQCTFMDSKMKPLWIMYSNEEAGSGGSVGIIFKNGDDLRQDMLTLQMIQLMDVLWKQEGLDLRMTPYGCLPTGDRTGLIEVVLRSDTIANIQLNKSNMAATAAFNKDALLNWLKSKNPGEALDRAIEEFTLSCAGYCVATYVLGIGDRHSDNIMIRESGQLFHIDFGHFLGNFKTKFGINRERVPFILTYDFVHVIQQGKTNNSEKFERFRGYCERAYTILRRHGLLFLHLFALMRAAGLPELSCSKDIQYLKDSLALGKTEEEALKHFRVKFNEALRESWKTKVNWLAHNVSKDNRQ
Sequence of PI3Kδ (P27986 whole entry partner, species assumed): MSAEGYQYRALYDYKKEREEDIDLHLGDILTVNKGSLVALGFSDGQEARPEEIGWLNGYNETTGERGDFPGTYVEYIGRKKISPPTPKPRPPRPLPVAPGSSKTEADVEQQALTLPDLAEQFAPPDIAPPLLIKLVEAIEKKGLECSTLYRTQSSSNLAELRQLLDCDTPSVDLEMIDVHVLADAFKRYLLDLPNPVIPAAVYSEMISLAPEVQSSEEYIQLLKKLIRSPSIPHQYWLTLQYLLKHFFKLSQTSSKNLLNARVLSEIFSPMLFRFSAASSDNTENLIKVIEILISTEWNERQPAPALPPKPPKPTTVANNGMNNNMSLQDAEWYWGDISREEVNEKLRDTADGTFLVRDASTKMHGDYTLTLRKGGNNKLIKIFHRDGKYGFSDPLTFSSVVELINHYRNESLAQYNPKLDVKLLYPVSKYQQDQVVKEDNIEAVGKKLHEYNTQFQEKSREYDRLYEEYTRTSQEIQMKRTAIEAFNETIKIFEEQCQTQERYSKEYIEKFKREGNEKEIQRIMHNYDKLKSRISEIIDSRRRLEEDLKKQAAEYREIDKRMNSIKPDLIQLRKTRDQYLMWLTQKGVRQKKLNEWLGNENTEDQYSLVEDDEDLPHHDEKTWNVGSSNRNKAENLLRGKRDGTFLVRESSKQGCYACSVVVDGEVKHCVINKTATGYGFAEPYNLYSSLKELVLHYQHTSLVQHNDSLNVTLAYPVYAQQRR
Sequence of PI3Kβ (P42338 whole entry, species assumed): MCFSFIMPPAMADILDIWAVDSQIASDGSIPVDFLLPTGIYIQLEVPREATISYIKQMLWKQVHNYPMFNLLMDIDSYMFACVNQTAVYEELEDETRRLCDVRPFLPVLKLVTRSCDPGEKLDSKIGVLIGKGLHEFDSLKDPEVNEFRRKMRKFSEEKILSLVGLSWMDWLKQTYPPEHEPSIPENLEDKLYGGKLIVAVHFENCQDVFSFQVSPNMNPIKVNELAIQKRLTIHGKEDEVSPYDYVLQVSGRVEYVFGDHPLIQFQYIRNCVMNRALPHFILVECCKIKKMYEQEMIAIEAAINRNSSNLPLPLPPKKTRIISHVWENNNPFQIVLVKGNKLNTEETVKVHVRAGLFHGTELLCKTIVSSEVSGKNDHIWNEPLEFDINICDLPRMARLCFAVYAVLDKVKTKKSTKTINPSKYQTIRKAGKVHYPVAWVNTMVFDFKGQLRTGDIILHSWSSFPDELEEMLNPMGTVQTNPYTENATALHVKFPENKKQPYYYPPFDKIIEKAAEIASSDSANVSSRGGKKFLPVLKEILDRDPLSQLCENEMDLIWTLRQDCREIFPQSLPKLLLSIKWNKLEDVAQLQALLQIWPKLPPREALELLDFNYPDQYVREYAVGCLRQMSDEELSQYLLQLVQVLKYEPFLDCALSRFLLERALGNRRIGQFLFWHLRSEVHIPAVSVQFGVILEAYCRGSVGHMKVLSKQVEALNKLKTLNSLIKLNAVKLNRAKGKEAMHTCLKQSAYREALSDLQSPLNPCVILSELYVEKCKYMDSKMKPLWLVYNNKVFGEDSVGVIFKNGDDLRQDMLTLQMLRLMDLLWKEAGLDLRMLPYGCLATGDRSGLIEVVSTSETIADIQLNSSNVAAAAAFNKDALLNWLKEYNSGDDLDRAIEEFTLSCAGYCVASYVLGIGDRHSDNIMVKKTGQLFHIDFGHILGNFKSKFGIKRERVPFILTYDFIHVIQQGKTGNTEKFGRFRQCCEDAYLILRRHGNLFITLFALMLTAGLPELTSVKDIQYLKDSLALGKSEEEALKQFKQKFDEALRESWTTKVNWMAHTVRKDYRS
Sequence of PI3Kβ (P27986 whole entry partner, species assumed): as the sequence (P27986 whole entry partner, species assumed) above
Sequence of PI3Kα (P42336 whole entry, species assumed, canonical isoform): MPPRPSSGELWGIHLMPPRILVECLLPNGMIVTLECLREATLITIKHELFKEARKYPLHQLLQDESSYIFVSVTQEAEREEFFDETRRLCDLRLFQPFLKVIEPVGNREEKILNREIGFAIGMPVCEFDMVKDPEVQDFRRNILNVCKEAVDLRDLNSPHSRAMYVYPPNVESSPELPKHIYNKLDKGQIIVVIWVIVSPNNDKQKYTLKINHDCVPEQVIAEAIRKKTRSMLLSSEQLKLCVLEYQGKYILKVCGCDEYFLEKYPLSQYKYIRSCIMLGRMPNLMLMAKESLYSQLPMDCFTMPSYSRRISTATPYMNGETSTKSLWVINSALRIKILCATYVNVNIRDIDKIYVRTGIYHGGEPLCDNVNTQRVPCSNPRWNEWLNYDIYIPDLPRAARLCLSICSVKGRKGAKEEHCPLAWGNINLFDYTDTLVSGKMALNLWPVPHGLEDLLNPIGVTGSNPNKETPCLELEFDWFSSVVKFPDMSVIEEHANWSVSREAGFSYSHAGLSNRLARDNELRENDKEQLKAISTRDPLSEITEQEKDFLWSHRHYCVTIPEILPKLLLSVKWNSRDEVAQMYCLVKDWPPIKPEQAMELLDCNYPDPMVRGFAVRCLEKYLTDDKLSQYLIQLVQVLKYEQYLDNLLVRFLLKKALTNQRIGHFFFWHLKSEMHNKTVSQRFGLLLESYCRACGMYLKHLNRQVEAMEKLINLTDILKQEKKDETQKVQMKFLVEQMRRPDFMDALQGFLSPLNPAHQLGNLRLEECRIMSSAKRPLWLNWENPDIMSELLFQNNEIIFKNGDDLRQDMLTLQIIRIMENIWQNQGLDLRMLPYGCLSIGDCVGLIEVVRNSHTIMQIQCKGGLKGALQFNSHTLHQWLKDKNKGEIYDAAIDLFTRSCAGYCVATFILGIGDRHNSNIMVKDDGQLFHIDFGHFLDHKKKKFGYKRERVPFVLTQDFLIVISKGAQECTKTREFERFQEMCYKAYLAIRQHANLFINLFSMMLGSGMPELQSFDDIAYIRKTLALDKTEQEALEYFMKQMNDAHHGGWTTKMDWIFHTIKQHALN
Sequence of PI3Kα (P27986 whole entry partner, species assumed, canonical isoform): as the sequence (P27986 whole entry partner, species assumed) above
Sequence of PI3Kγ (P48736 whole entry, species assumed): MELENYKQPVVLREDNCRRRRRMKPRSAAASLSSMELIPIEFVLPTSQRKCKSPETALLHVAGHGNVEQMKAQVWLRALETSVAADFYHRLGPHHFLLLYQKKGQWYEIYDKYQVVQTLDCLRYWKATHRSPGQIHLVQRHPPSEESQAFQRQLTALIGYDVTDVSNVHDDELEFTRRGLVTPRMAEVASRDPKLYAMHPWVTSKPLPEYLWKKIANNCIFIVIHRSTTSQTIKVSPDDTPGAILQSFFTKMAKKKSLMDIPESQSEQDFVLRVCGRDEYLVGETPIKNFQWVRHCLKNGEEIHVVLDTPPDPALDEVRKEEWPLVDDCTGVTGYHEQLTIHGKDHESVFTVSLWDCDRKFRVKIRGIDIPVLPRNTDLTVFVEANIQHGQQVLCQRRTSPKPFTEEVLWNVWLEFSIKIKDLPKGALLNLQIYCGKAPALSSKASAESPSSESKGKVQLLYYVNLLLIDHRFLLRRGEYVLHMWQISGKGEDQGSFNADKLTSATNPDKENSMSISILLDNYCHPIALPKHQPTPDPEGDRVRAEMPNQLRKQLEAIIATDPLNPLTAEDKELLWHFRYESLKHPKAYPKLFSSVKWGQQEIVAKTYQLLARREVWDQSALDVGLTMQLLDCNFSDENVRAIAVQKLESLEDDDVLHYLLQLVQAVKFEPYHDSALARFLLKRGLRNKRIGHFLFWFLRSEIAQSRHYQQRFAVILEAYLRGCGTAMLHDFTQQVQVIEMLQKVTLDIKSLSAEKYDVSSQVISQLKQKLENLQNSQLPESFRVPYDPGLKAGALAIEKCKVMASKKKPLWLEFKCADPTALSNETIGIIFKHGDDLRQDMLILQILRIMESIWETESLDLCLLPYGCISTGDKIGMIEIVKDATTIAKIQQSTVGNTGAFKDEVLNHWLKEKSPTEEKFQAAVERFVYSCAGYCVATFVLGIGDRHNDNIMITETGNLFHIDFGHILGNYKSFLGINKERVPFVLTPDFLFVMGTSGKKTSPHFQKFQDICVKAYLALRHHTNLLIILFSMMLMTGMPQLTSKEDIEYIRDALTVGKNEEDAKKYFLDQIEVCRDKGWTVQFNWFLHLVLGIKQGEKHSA

Consider `CC(=O)Nc1nc(C)c(-c2cc3c(c(NS(C)(=O)=O)n2)C(=O)N([C@@H](C)C2CC2)C3)s1` [Compound 20, (S)-N-(5-(2-(1-cyclopropylethyl)-4-(methylsulfonamido)-3-oxo-2,3-dihydro-1H-pyrrolo[3,4-c]pyridin-6-yl)-4-methylthiazol-2-yl)acetamide], for which the IC50 on PI3Kγ was 1.3 nM; on PI3Kδ it was 1170 nM; at PI3Kα, 3890 nM; at PI3Kβ, greater than 10000 nM.

`CC(=O)Nc1nc(C)c(-c2cc3c(c(N4CCOCC4)n2)C(=O)N([C@@H](C)C2CC2)C3)s1` [Compound 34, (S)-N-(5-(2-(1-cyclopropylethyl)-4-morpholino-3-oxo-2,3-dihydro-M-pyrrolo[3,4-c]pyridin-6-yl)-4-methylthiazol-2-yl)acetamide]: the values for the IC50 on PI3Kδ, on PI3Kα and at PI3Kβ were greater than 1000 nM, 3330 nM and greater than 10000 nM, respectively. Further, the concentration at 0.5 h came out at 2490 ng/g in series [1] (CD-1, brain, read-out: Brain) and 2800 ng/mL in series [1] (CD-1, plasma, read-out: Plasma). Moreover, the concentration at 2 h was 473 ng/g in series [1] (CD-1, brain, read-out: Brain) and 1200 ng/mL in series [1] (CD-1, plasma, read-out: Plasma). Moreover, the concentration at 8 h in series [1] (CD-1, brain, read-out: Brain) is 454 ng/g; in series [1] (CD-1, plasma, read-out: Plasma) it was 1370 ng/mL. Moreover, the “tumor growth (tumor volume)” value in the series on 4T1 cells was “significantly suppressed tumor growth”. Besides, the “clinical disability symptom (EAE clinical score)” value with MOG35-55 induced EAE was “significantly ameliorated the clinical disability symptom”.
